# Source: patent publication US20080014153A1, “Topical Preparation For Application To The Skin Containing Natural Oil Of The Evening Primrose (Oenothera Biennis) (=Oleum Oenotherae) And Osmolytes Originating From Extremophilic Microorganisms” (priority 2004, published 2008)
# What was measured:
# [1] = tested on: very dry, irritated and problematic skin; assay: Tending effect of care product on skin; assay type: in vivo; details: 0.5% (wt. percent) ectoine in evening primrose oil containing product
# [2] = 0.1% (wt. percent) added to evening primrose oil preparation; room temperature, 25° C.; first occurrence of rancid smell
# Method: The stability of the preparation was assessed based on the first occurrence of a rancid smell of the evening primrose oil.
Molecule,tending effect compared with evening primrose oil containing tending product of identical composition [1],improved evening primrose oil storage stability compared to a check preparation without diglycerol phosphates [2]
CC1=NCC[C@@H](C(=O)O)N1 [ectoine],noticeably better tending effect,
diglycerol phosphate,,five
